According to ChEMBL document CHEMBL1148593, “Matrix metalloproteinase target family landscape: a chemometrical approach to ligand selectivity based on protein binding site analysis” (J Med Chem, 2006):

Assays:
[1] = molecular target: Stromelysin-1 (Homo sapiens, UniProt P08254); assay: Binding affinity to MMP3
[2] = molecular target: 72 kDa type IV collagenase (Homo sapiens, UniProt P08253); assay: Binding affinity to MMP2
[3] = molecular target: Matrix metalloproteinase-9 (Homo sapiens, UniProt P14780); assay: Binding affinity to MMP9
Sequence of Matrix metalloproteinase-9 (P14780 whole entry): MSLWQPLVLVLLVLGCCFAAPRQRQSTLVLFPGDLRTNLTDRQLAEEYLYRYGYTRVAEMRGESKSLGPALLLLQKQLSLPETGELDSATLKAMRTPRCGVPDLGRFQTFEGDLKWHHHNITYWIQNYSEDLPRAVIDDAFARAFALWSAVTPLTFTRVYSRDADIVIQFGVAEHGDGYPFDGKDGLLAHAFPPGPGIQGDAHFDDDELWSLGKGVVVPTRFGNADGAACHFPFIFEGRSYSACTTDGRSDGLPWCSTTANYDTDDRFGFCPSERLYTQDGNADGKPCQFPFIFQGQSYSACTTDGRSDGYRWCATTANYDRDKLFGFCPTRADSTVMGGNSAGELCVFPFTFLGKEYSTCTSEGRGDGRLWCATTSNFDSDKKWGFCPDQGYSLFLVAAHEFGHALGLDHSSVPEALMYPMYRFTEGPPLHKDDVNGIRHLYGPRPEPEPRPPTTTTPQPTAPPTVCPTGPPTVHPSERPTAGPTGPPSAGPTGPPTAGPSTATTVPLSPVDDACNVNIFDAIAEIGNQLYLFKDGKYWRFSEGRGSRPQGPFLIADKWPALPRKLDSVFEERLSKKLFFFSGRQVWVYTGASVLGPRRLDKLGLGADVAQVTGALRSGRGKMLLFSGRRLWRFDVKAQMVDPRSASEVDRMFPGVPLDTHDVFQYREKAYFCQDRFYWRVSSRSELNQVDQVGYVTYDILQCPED

[4] = molecular target: T1, Matrilysin (Homo sapiens, UniProt P09237); assay: Binding affinity to MMP7
T1 sequence (P09237 whole entry): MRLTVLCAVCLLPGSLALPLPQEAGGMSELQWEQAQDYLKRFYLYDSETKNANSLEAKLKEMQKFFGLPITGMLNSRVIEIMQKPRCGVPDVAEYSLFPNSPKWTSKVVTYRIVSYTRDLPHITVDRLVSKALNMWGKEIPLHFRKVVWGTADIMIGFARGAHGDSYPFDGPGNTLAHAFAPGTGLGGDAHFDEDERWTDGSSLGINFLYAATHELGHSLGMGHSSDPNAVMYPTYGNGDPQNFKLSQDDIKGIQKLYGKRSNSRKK

[5] = molecular target: T2, Interstitial collagenase (Homo sapiens, UniProt P03956); assay: Binding affinity to MMP1
T2 sequence (P03956 whole entry): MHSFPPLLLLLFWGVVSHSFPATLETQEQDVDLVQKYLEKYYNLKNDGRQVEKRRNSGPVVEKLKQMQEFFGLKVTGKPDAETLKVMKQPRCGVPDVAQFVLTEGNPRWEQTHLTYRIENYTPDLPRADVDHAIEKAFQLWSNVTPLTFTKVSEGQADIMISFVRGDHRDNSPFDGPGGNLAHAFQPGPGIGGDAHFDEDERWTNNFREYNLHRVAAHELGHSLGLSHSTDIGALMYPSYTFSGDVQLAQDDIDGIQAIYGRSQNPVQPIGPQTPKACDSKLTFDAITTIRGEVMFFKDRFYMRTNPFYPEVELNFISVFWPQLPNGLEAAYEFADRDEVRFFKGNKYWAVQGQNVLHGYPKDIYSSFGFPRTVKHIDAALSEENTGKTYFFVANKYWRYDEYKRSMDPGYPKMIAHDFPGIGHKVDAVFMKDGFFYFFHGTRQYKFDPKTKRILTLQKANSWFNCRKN

[6] = molecular target: Neutrophil collagenase (Homo sapiens, UniProt P22894); assay: Binding affinity to MMP8
Sequence of Neutrophil collagenase (P22894 whole entry): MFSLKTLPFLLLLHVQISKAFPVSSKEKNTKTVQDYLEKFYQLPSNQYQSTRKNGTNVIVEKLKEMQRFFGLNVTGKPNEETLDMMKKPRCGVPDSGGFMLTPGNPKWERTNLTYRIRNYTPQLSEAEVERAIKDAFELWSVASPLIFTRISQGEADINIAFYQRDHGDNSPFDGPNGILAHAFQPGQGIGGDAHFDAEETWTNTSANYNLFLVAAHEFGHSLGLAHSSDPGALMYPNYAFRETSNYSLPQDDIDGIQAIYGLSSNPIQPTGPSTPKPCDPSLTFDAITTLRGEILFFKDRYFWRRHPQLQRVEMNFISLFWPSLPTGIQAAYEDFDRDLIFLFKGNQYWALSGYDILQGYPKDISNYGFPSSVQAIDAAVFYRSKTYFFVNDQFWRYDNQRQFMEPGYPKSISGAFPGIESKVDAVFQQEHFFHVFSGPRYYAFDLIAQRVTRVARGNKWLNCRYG

[7] = molecular target: T3, Interstitial collagenase (Homo sapiens) (UniProt P03956); assay: Inhibition of MMP1 at 2 uM
T3 sequence (whole entry): T2 sequence (P03956 whole entry)

[8] = molecular target: T4, Matrilysin (Homo sapiens) (UniProt P09237); assay: Inhibition of MMP7 at 2 uM
T4 sequence (whole entry): T1 sequence (P09237 whole entry)

[9] = molecular target: T5, Stromelysin-3 (Homo sapiens, UniProt P24347); assay: Binding affinity to MMP11
T5 sequence (P24347 whole entry): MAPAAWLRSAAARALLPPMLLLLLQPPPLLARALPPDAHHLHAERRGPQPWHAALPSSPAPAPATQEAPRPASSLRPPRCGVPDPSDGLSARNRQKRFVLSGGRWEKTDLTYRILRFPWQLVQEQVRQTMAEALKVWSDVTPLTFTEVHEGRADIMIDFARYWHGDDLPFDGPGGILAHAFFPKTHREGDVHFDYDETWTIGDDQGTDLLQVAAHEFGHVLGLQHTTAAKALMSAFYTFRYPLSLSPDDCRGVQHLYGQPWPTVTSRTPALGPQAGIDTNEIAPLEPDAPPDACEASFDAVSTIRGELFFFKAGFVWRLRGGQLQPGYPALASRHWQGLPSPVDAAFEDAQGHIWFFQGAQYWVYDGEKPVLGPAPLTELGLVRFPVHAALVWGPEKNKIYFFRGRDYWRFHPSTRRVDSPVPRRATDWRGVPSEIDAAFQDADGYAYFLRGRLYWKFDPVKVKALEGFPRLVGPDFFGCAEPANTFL

Sequence of Stromelysin-1 (P08254 whole entry): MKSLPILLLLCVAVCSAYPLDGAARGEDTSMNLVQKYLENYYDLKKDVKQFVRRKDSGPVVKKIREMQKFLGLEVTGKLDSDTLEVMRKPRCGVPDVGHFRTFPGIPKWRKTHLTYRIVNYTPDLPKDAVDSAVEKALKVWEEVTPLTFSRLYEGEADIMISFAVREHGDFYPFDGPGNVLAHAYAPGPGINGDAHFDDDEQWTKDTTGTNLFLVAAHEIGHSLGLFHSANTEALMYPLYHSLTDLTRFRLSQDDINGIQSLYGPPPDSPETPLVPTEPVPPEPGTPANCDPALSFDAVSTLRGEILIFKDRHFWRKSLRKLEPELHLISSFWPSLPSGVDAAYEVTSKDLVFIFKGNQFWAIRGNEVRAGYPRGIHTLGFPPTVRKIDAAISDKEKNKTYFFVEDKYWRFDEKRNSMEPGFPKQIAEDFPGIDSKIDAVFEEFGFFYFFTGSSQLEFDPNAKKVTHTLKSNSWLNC
Sequence of 72 kDa type IV collagenase (P08253 whole entry): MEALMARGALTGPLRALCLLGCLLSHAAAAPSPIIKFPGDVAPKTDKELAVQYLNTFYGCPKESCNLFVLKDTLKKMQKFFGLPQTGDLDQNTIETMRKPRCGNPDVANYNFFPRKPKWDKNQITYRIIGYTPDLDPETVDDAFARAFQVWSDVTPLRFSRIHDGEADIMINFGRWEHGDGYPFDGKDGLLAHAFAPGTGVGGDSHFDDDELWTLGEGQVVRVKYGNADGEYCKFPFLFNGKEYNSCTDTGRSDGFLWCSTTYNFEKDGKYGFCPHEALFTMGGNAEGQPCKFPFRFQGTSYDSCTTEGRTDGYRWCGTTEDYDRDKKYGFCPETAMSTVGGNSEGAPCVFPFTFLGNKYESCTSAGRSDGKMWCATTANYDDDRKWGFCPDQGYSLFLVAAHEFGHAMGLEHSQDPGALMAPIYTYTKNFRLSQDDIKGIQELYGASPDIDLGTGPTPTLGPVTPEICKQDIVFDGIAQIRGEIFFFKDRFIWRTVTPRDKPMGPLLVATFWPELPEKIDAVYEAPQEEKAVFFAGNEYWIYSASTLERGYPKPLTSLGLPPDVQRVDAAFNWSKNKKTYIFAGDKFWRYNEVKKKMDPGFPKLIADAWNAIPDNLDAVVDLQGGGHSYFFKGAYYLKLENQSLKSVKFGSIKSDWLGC

Which IC50 [1] does the source give for `O=C(Nc1ccc(S(=O)(=O)C[C@@H](Cc2c[nH]c3ccccc23)C(=O)O)cc1)c1ccc(Br)cc1` here?
The IC50 was > 1000 nM.

What about the IC50 [2] of the same molecule?
Its IC50 is 2.6 nM.

And the IC50 [3]?
The IC50 was 2.7 nM.

What about the IC50 [4] of the same molecule?
The IC50 was > 1000 nM.

What about the IC50 [5] of the same molecule?
The IC50 was > 1000 nM.

Which results are given for `O=C(O)C1Cc2ccccc2CN1S(=O)(=O)CCc1ccc(-c2ccc(Cl)cc2)cc1` (stereo not given)?
IC50 [6]: 10 nM; IC50 [5]: > 10000 nM

What does the source list for `CC(C)CC(C(=O)N[C@H]1CCCCCCCCCCNC1=O)[C@H](O)C(=O)NO` (stereo not given in full)?
IC50 [1]: 500 nM; IC50 [2]: 20 nM; IC50 [4]: 200 nM; IC50 [6]: 20 nM; IC50 [5]: 30 nM

For `CNC(=O)C1CCCCNC(=O)CCC(C(=O)O)NC(CCc2ccccc2)C(=O)N1` (stereo not given), which Ki [1] is on record?
The Ki was 2900 nM.

What about the Ki [2] of the same molecule?
Its Ki is 8100 nM.

What about the Ki [3] of the same molecule?
The Ki was 6600 nM.

And the Ki [6]?
The Ki was 17 nM.

Which inhibition [7] does the source give for `NC(=O)C(Cc1c[nH]c2ccccc12)NC(=O)C(CCCc1ccccc1)CP(=O)(O)C(Cc1ccccc1)NC(=O)OCc1ccccc1` (stereo not given) here?
Its inhibition is 23%.

What about the inhibition [8] of the same molecule?
The inhibition was 8%.

And the Ki [9]?
The Ki was 5 nM.

And the IC50 [6]?
The IC50 was 2.5 nM.
